Key:
VEGFR II (KDR) = VEGFR II (KDR) (Homo sapiens, UniProt P35968); test: Inhibition of KDR kinase activity (33P-ATP, poly-(Glu4Tyr) phosphocellulose filter assay); assay type: biochemical; settings: 10 minutes at room temperature, KH = keine Hemmung = No inhibition
Experimental: (§1) • Stock solutions • Stock solution A: 3 mmol of ATP in water, pH 7.0 (−70° C.) • Stock solution B: g-0.33P-ATP 1 mCi/100 μl • Stock solution C: poly-(Glu4Tyr) 10 mg/ml in water Solution for Dilutions • Substrate solvent: 10 mmol of DTT, 10 mmol of manganese chloride, 100 mmol of magnesium chloride • Enzyme solution: 120 mmol of tris/HCl, pH 7.5, 10 μm of sodium vanadium oxide Sample Application 1
(§2) Inhibition of the KDR- and FLT-1 kinase activity in the presence of the compounds according to the invention
(§3) It is thoroughly mixed and incubated for 10 minutes at room temperature. Then, 10 μl of stop solution (250 mmol of EDTA, pH 7.0) is added, mixed, and 10 μl of the solution is transferred to a P 81 phosphocellulose filter. Then, it is washed several times in 0.01 M phosphoric acid. The filter paper is dried, coated with Meltilex and measured in a microbeta counter.

VEGFR I (FLT) = VEGFR I (FLT) (Homo sapiens, UniProt P17948); test: Inhibition of FLT-1 kinase activity (33P-ATP, poly-(Glu4Tyr) phosphocellulose filter assay); assay type: biochemical; settings: 10 minutes at room temperature, KH = keine Hemmung = No inhibition
Sequence of VEGFR I (FLT) (P17948 27-1338, species assumed): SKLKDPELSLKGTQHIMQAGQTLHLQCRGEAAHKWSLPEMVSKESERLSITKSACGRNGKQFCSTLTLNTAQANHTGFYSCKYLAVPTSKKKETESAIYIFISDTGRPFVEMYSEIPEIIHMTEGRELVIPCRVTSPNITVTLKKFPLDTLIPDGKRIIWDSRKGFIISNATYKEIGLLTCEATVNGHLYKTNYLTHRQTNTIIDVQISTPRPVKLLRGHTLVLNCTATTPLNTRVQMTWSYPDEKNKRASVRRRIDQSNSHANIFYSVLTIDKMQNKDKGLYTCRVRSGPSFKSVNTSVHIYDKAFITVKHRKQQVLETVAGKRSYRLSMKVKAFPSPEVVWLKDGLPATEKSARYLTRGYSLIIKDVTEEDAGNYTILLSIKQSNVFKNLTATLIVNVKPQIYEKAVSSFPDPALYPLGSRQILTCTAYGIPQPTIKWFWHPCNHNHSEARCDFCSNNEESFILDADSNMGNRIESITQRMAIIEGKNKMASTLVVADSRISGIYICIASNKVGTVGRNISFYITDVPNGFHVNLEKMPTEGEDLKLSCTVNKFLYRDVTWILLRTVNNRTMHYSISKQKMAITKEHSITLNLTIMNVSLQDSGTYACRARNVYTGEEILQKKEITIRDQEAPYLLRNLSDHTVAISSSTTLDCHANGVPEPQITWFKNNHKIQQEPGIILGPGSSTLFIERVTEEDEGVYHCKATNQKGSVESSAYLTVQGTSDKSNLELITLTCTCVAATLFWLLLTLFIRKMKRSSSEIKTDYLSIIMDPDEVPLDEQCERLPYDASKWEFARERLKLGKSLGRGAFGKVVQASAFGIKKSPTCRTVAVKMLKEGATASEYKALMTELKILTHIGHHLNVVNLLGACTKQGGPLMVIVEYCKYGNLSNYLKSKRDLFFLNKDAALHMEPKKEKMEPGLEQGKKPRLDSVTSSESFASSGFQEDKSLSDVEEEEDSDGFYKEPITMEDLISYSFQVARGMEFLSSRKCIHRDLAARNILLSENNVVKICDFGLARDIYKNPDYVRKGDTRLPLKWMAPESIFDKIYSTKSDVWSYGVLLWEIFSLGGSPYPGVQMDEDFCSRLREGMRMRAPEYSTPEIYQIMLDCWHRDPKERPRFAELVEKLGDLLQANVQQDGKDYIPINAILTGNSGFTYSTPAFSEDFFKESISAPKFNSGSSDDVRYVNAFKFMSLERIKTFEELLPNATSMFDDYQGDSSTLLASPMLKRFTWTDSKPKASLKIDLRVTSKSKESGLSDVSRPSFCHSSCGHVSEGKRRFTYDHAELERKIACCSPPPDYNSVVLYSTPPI
Experimental: as §1, §2, §3

Sequence of VEGFR II (KDR) (P35968 20-1356, species assumed): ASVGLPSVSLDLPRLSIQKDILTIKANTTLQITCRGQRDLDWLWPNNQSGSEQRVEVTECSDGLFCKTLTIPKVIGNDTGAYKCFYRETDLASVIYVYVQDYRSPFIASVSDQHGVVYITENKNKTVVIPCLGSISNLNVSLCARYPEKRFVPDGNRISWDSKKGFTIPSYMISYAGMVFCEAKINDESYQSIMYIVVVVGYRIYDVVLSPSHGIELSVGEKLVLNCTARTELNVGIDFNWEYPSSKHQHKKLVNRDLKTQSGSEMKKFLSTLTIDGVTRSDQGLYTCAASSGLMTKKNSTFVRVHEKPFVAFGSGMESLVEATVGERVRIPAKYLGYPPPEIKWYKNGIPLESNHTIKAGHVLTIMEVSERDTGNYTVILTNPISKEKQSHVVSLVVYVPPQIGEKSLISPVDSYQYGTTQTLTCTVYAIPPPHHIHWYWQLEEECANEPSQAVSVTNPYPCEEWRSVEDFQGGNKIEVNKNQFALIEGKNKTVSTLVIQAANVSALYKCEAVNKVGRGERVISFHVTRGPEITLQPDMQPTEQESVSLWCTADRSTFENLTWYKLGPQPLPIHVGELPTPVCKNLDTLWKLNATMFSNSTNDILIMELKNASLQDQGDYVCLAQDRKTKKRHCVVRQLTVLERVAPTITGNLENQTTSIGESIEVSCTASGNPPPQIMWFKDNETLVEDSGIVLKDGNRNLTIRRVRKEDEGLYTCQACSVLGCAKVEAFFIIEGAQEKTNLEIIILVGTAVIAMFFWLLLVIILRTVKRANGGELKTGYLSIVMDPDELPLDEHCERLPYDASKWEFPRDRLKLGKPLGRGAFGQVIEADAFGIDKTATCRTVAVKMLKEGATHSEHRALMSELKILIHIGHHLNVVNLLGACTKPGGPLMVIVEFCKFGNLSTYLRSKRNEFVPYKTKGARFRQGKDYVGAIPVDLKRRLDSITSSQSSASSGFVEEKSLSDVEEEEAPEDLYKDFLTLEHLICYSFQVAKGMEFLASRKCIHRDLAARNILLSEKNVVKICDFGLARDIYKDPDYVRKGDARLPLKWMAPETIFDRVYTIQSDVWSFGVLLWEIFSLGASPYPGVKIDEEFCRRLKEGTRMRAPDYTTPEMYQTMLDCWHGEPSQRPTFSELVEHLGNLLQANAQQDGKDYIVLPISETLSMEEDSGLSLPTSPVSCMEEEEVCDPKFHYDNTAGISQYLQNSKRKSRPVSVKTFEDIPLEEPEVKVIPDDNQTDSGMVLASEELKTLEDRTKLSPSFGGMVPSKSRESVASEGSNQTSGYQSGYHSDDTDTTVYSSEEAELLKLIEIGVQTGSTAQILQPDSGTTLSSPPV

| Structure (SMILES) | IC50 (VEGFR II (KDR)) [nM] | IC50 (VEGFR I (FLT)) [nM] |
| --- | --- | --- |
| O=C(Nc1nc2c(Cl)cccc2s1)c1ccccc1NCc1ccncc1 [Example 8.17] | 50 |  |
| O=C(Nc1nc2ccc(Cl)cc2s1)c1ccccc1NCc1ccncc1 [Example 8.13] | 500 | 500 |
| O=C(Nc1cccc2cnccc12)c1ccccc1NCc1ccncc1 [Example 2.55] | 200 | 300 |
| O=C(Nc1ccc2cn[nH]c2c1)c1ccccc1NCc1ccncc1 [Example 8.10] | 20 | 20 |
| O=C(NCc1ccc(C(F)(F)F)cc1)c1ccccc1NCc1ccncc1 [Example 2.42] | 100 | 500 |
| COc1ccc(CCNC(=O)c2ccccc2NCc2ccncc2)cc1OC [Example 2.21] | 300 | 2000 |
| CC(CNC(=O)c1ccccc1NCc1ccncc1)c1ccc(Cl)cc1 (stereo not drawn) [Example 2.16] | 200 | 100 |
| O=C(Nc1ccncc1)c1ccccc1NCc1ccncc1 [Example 8.11] |  | 200 |
| COc1ccc(CCNC(=O)c2ccccc2NCc2ccncc2)cc1 [Example 2.35] | 20 | 98 |
| O=C(NCc1cccnc1)c1ccccc1NCc1ccncc1 [Example 2.38] | 200 | 7000 |
| O=C(Nc1ccc2nc[nH]c2c1)c1ccccc1NCc1ccncc1 [Example 8.14] | 200 | 500 |
| O=C(NCc1nccc2ccccc12)c1ccccc1NCc1ccncc1 [Example 2.47] |  | 20 |
| O=C(Nc1ccc2[nH]ncc2c1)c1ccccc1NCc1ccncc1 [Example 8.0, N-(indazol-5-yl) N2-(4-pyridylmethyl)-anthranilic acid amide] | 40 | 40 |
| O=C(Nc1ccc2ncccc2c1)c1ccccc1NCc1ccncc1 [Example 2.52] |  | 50 |
| O=C(Nc1ccc2nsnc2c1)c1ccccc1NCc1ccncc1 [Example 2.23] | 670 | 20 |
| CN(NC(=O)c1ccccc1NCc1ccncc1)c1ccccc1 [Example 2.5] |  | 1000 |
| O=C(NCCc1c[nH]c2cc(F)ccc12)c1ccccc1NCc1ccncc1 [Example 2.8] | 100 | 500 |
| O=C(Nc1ccc2[nH]ccc2c1)c1ccccc1NCc1ccncc1 [Example 2.56] | 20 | 40 |
| O=C(NCCc1ccc(Cl)cc1)c1ccccc1NCc1ccncc1 [Example 2.3] | 20 | 20 |
| O=C(Nc1cc2ccccc2cn1)c1ccccc1NCc1ccncc1 [Example 2.54] | 5 | 20 |
| O=C(Nc1ccc2ccccc2n1)c1ccccc1NCc1ccncc1 [Example 2.53] | 20 | 20 |

| Structure (SMILES) | IC50 (VEGFR II (KDR)) [nM] | IC50 (VEGFR I (FLT)) [nM] |
| --- | --- | --- |
| CC(Cc1ccc(Cl)cc1)NC(=O)c1ccccc1NCc1ccncc1 (stereo not drawn) [Example 2.17] | 500 | 400 |
| O=C(NCCc1ccc(Cl)cc1)c1ccccc1NCc1ccc(O)cc1 [Example 4.0, N-[2-(4-chlorophenyl)ethyl]-N-2-(4-hydroxybenzyl)anthranilamide] | 200 | 500 |
| O=C(N[C@H]1CCCc2ccccc21)c1ccccc1NCc1ccncc1 [Example 2.45] |  | 100 |
| O=C(Nc1nc2ccccc2[nH]1)c1ccccc1NCc1ccncc1 [Example 8.2] | 200 | 200 |
| O=C(NC1Cc2ccccc2C1)c1ccccc1NCc1ccncc1 [Example 2.2] | 500 | 100 |
| O=C(NNc1ccc(Cl)cc1)c1ccccc1NCc1ccncc1 [Example 2.4] | 100 | 20 |
| CC(CNC(=O)c1ccccc1NCc1ccncc1)c1ccccc1 (stereo not drawn) [Example 2.18] | 500 | 300 |
| O=C(NC1CCc2cc(Cl)ccc21)c1ccccc1NCc1ccncc1 (stereo not drawn) [Example 2.20] |  | 4000 |
| O=C(Nc1nnc(C(F)(F)F)s1)c1ccccc1NCc1ccncc1 [Example 2.41] | 300 | 1000 |
| O=C(Nc1nc2ccc(OC(F)(F)F)cc2s1)c1ccccc1NCc1ccncc1 [Example 8.9] | 500 | 500 |
| O=C(Nc1nc2ccc(F)cc2s1)c1ccccc1NCc1ccncc1 [Example 8.16] | 300 | 200 |
| O=C(Nc1cccnc1)c1ccccc1NCc1ccncc1 [Example 2.40] |  | 500 |
| O=C(Nc1nccc2ccccc12)c1ccccc1NCc1ccncc1 [Example 2.31] | 270 | 100 |
| O=C(NCc1cccs1)c1ccccc1NCc1ccncc1 [Example 2.6] | 2000 | 200 |
| O=C(NC1CCC(c2ccccc2)CC1)c1ccccc1NCc1ccncc1 (stereo not drawn) [Example 2.44] | 200 | 300 |
| O=C(NCc1ccncc1)c1ccccc1NCc1ccncc1 [Example 2.10] |  | 3000 |
| COc1cc2c(cc1OC)CC(NC(=O)c1ccccc1NCc1ccncc1)CC2 (stereo not drawn) [Example 2.9] |  | 5000 |
| O=C(NCc1ccc(Cl)cc1)c1ccccc1NCc1ccncc1 [Example 2.1] | 300 | 10 |
| Cn1c(NC(=O)c2ccccc2NCc2ccncc2)nc2ccccc21 [Example 8.12] | 100 | 200 |
| COc1ccc(CNc2ccccc2C(=O)NCc2ccc(Cl)cc2)cc1 [Example 3.0, N-(4-chlorobenzyl)-N-2-(4-methoxybenzyl)anthranilamide] | 3000 |  |
| O=C(Nc1cc2ccccc2c(Nc2cc3ccccc3c(Br)n2)n1)c1ccccc1NCc1ccncc1 [Example 2.33] | 2000 | 1000 |

| Structure (SMILES) | IC50 (VEGFR II (KDR)) [nM] | IC50 (VEGFR I (FLT)) [nM] |
| --- | --- | --- |
| CC(C)(NC(=O)c1ccccc1NCc1ccncc1)c1ccccc1 [Example 2.19] | > 10000 | > 10000 |
| O=C(Nc1cc(-c2ccccc2)[nH]n1)c1ccccc1NCc1ccncc1 [Example 2.43] | 50 | 20 |
| O=C(NCc1ccc2ccccc2n1)c1ccccc1NCc1ccncc1 [Example 2.48] | 500 | 100 |
| O=C(Nc1cccc2ncccc12)c1ccccc1NCc1ccncc1 [Example 2.26] | 200 | 200 |
| O=C(Nc1ccc2c(c1)NCCC2)c1ccccc1NCc1ccncc1 [Example 2.49] | 50 | 80 |
| CC(NC(=O)c1ccccc1NCc1ccncc1)c1ccc(Cl)cc1 (stereo not drawn) [Example 2.15] |  | 1000 |
| O=C(Nc1cccc2cccnc12)c1ccccc1NCc1ccncc1 [Example 2.34] | 100 | 2000 |
| O=C(Nc1ccc2[nH]nnc2c1)c1ccccc1NCc1ccncc1 [Example 8.15] | 200 | 200 |
| O=C(NCCCc1ccccc1)c1ccccc1NCc1ccncc1 [Example 2.0, N-(3-phenylprop-1-yl)-N2-(4-pyridylmethyl)-anthranilic acid amide] | 50 | 50 |
| O=C(NCc1cccc2ccccc12)c1ccccc1NCc1ccncc1 [Example 2.11] | 200 | 20 |
| O=C(Nc1ccccn1)c1ccccc1NCc1ccncc1 [Example 2.37] |  | 200 |
| O=C(Nc1ccc(Cl)cn1)c1ccccc1NCc1ccncc1 [Example 2.39] | 30 | 50 |
| O=C(NC1CCCc2ccccc21)c1ccccc1NCc1ccncc1 (stereo not drawn) [Example 2.13] | 3000 | 700 |
| O=C(Nc1ncc(Cl)cn1)c1ccccc1NCc1ccncc1 [Example 2.32] | 20 | 20 |
| O=C(NCCCc1ccc(Cl)cc1)c1ccccc1NCc1ccncc1 [Example 2.14] | 300 | 500 |
| CC(NC(=O)c1ccccc1NCc1ccncc1)c1cccc2ccccc12 (stereo not drawn) [Example 2.12] | 3000 | 700 |
| O=C(Nc1ccc2ncsc2c1)c1ccccc1NCc1ccncc1 [Example 8.8] | 20 | 50 |
| O=C(Nc1cc2ccccc2cn1)c1cc(F)ccc1NCc1ccncc1 [Example 2.63] | 0.3 |  |
| O=C(N[C@@H]1CCCc2ccccc21)c1ccccc1NCc1ccncc1 [Example 2.24] | > 1000 | 500 |

From patent US7122547B1, “Anthranilic acid amides and the use thereof as medicaments” (Schering AG, priority 1998, dated 2006)
